Results on 12 compounds are retold here after patent US8404687B2, “Disubstituted phthalazine hedgehog pathway antagonists” (Eli Lilly and Company, priority 2008, dated 2013).

Each structure is given as a SMILES string. Structures can show the parent of a compound that is named as a salt.

For orientation: IC50 means the point on the concentration scale where inhibition reaches its midpoint. For orientation: inhibition means the drop in the measured response relative to a control, in per cent. High values mean strong suppression, low ones little suppression.

T1 sequence (P08684 whole entry): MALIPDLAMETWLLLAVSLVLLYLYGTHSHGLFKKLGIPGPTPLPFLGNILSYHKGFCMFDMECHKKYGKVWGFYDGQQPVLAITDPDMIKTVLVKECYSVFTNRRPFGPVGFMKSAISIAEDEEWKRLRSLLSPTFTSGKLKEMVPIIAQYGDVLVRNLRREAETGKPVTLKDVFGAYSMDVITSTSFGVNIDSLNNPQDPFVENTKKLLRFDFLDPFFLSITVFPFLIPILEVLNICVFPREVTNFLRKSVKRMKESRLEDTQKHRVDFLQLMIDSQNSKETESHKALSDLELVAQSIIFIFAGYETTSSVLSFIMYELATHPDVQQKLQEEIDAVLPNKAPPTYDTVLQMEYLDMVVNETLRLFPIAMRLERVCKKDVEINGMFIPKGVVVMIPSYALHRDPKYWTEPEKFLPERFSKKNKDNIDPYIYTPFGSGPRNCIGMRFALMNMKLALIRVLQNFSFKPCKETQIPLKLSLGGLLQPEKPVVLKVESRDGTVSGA

One data set relates to Gli1 transcript in Daoy cells stimulated with Shh conditioned media. Briefly: Functional assay for measuring the inhibition of Gli1 in Daoy cells (bDNA). It is filed as cell-based. The note with it: Homo sapiens; Daoy cells treated with Shh-CM, 24 hours incubation with compound, Gli1 transcript by bDNA luminescence. As to the method:
Biological activity is determined using a functional assay in Daoy neuronal cancer cells and measures levels of Gli1 ribonucleic acid via a bDNA (branched deoxyribonucleic acid) assay system (Panomics, Inc., Fremont, Calif.). Gli was originally discovered in a Glioblastoma cell line and encodes a zinc finger protein that is activated by Shh signaling. The maximum response is obtained by inducing Gli1 transcription in the Daoy cells with conditioned medium (human embryonic kidney, HEK-293 cells stably expressing recombinant Shh) for 24 hours and then measuring the amount of stimulated Gli1 transcript. […]
The bDNA assay system utilizes the technology of branched-chain DNA to allow amplification of a target ribonucleic acid (transcript). […] The addition of a chemilumigenic substrate during the amplification step allows for detection using luminescence. […]
Daoy cells are grown to confluency in tissue culture T225-flasks in Daoy growth media containing Minimum Essential Medium (MEM) plus 10% Fetal Bovine Serum (FBS) with […] non-essential amino acids and 1 mM sodium pyruvate. The cells are removed from the T225-flasks using trypsin ethylenediaminetetraacetic acid (EDTA), centrifuged, resuspended in media, and then counted. […]
As to `C[C@H]1CN(C(=O)Nc2ccc(F)cc2)CCN1c1nnc(-c2ccc(F)cc2)c2ccccc12` [Example 2, (S)—N-(4-Fluorophenyl)-4-(4-(4-fluorophenyl)phthalazin-1-yl)-3-methylpiperazine-1-carboxamide hydrochloride], the 50% inhibitory concentration (IC50) is roughly 0.42 nM.

The next data set concerns the target T1, CYP3A4 (Homo sapiens, UniProt P08684).
T1 construct: from tissue; host or cells: human liver microsomes
Briefly: CYP3A4 Inhibition Assay. The note with it: liver microsomes, pH 7.4, probe midazolam (5 μM; formation of 1-OH-midazolam), human liver microsomal preparation, 10 μM inhibitor, 5 μM midazolam substrate. It is filed as in vitro ADME. As for the experimental part: Incubation samples are prepared by adding a human liver microsomal preparation to the test inhibitor (final concentrations 0.05 mg/mL protein, 10 μM inhibitor in 100 mM NaPO4, pH 7.4 buffer) and mixed. Samples are pre-incubated for approximately five minutes at 37° C. Following the pre-incubation period, the reaction is initiated with the addition of a solution containing NADPH and midazolam, as the enzyme substrate, (final concentration 1 mM NADPH, 5 μM midazolam). After addition of the NADPH solution, the samples are incubated for 3 min at approximately 37° C. Following the incubation period, the reaction is quenched by the addition of 50 μL of methanol (and an internal standard for chromatography) and the samples are mixed well. After quenching the reaction, the mixture is centrifuged at approximately 4000 rpm for 15 min at approximately 5° C. and analyzed by LC/MS analysis.
Samples are analyzed using HPLC/MS with gradient elution on short conventional C18 columns, (Loading Mobile Phase—95/5 Milli-Q H2O/methanol (v/v) with 1% acetic acid. Mobile Phase B—80/20 Milli-Q H2O/methanol (v/v) with 1% acetic acid. Mobile Phase C—5/95 Milli-Q H2O/methanol (v/v) with 1% acetic acid. Rinsing Mobile Phase—75/25 Milli-Q H2O/acetonitrile (v/v).
The samples are injected into a Mass Spectral Analyzer for Selected Ion Monitoring (SIM) at a mass of 342.1 (1-OH-midazolam) and 346.1 (α-hydroxymidazolam-d4 internal standard) using Turbolon Spray under positive conditions. Data are reported as % inhibition of the formation of 1-OH-midazolam in the presence of an inhibitor concentration of 10 μM.
(Liver microsomes are a subcellular fraction often used to study metabolism.)
`CC1CN(C(=O)Nc2ccc(OC(F)(F)F)cc2)CCN1c1nnc(-c2ccc(F)cc2)c2ccccc12` (racemic) [Example 6, (±)-4-(4-(4-Fluorophenyl)phthalazin-1-yl)-3-methyl-N-(4-(trifluoromethoxy)phenyl)piperazine-1-carboxamide hydrochloride] displayed an inhibition at 3 min, 10 μM of less than 45%.
Still for that read-out and setting: to `C[C@H]1CN(c2nnc(-c3ccc(F)cc3)c3ccccc23)CCN1C(=O)Nc1ccc(F)cc1C(F)(F)F` [Example 18, (S)-N-(4-Fluoro-2-(trifluoromethyl)phenyl)-4-(4-(4-fluorophenyl)phthalazin-1-yl)-2-methylpiperazine-1-carboxamide hydrochloride] belongs less than 45%; to `C[C@H]1CN(c2nnc(-c3ccc(C#N)cc3)c3ccccc23)CCN1C(=O)Nc1ccc(F)cc1F` [Example 26, (S)-4-(4-(4-Cyanophenyl)phthalazin-1-yl)-N-(2,4-difluorophenyl)-2-methylpiperazine-1-carboxamide hydrochloride], less than 45%; to `C[C@H]1CN(c2nnc(-c3ccc(C(F)(F)F)cc3)c3ccccc23)CCN1C(=O)Nc1ccc(F)cc1` [Example 45, (S)-N-(4-Fluorophenyl)-2-methyl-4-(4-(4-(trifluoromethyl)phenyl)phthalazin-1-yl)piperazine-1-carboxamide hydrochloride], less than 45%.
On to `C[C@H]1CN(c2nnc(-c3ccc(C(F)(F)F)cc3)c3ccccc23)CCN1C(=O)Nc1ccc(F)cc1F` [Example 47, (S)-N-(2,4-Difluorophenyl)-2-methyl-4-(4-(4-(trifluoromethyl)phenyl)phthalazin-1-yl)piperazine-1-carboxamide hydrochloride], for which the inhibition at 3 min, 10 μM was less than 45%.
Compound `C[C@H]1CN(C(=O)Nc2ccc(OC(F)(F)F)cc2)CCN1c1nnc(-c2ccc(F)cc2)c2ccccc12` [Example 48, (S)-4-(4-(4-Fluorophenyl)phthalazin-1-yl)-3-methyl-N-(4-(trifluoromethoxy)phenyl)piperazine-1-carboxamide hydrochloride] displayed an inhibition at 3 min, 10 μM of less than 45%.
Same read-out and setting: to `C[C@H]1CN(C(=O)Nc2ccc(F)cc2C(F)(F)F)CCN1c1nnc(-c2ccc(C#N)cc2)c2ccccc12` [Example 60, (S)-4-(4-(4-Cyanophenyl)phthalazin-1-yl)-N-(4-fluoro-2-(trifluoromethyl)phenyl)-3-methylpiperazine-1-carboxamide hydrochloride] belongs less than 45%; to `C[C@H]1CN(C(=O)Nc2ccc(F)cc2C(F)(F)F)CCN1c1nnc(-c2ccccc2)c2ccccc12` [Example 69, (S)-N-(4-Fluoro-2-(trifluoromethyl)phenyl)-3-methyl-4-(4-phenylphthalazin-1-yl)piperazine-1-carboxamide hydrochloride], less than 45%; to `CC[C@H]1CN(c2nnc(-c3ccc(F)cc3)c3ccccc23)CCN1C(=O)Nc1ccc(F)cc1F` [Example 86, (S)-N-(2,4-Difluorophenyl)-2-ethyl-4-(4-(4-fluorophenyl)phthalazin-1-yl)piperazine-1-carboxamide hydrochloride], less than 45%.
With `CC[C@H]1CN(c2nnc(-c3ccc(F)cc3)c3ccccc23)CCN1C(=O)Nc1ccc(F)cc1C(F)(F)F` [Example 87, (S)-2-Ethyl-N-(4-fluoro-2-(trifluoromethyl)phenyl)-4-(4-(4-fluorophenyl)phthalazin-1-yl)piperazine-1-carboxamide hydrochloride], the inhibition at 3 min, 10 μM is less than 45%.
The same measure, in the same setting: under `CC[C@H]1CN(c2nnc(-c3ccc(F)cc3)c3ccccc23)CCN1C(=O)Nc1ccc(F)cc1` [Example 88, (S)-2-Ethyl-N-(4-fluorophenyl)-4-(4-(4-fluorophenyl)phthalazin-1-yl)piperazine-1-carboxamide hydrochloride] stands less than 45%.
